According to patent US20210038607A1, “OXADIAZOLYLTHIOPHENE DERIVATIVES USEFUL AS HISTONE DEACETYLASE INHIBITORS” (Karus Therapeutics Limited, priority 2018, published 2021):

How the values were obtained:
Human HDAC1 = target: T1, Human HDAC1 (Homo sapiens, UniProt Q13547); assay: HDAC1 biochemical assay, AMC-labeled peptide substrate; conditions: read-out: HDAC Isoform IC50 (nM) 1
T1 construct: full length with C-terminal His-tag and C-terminal FLAG-tag; His (C); FLAG (C); host or cells: baculovirus expression system
T1 sequence (Q13547 whole entry, canonical isoform): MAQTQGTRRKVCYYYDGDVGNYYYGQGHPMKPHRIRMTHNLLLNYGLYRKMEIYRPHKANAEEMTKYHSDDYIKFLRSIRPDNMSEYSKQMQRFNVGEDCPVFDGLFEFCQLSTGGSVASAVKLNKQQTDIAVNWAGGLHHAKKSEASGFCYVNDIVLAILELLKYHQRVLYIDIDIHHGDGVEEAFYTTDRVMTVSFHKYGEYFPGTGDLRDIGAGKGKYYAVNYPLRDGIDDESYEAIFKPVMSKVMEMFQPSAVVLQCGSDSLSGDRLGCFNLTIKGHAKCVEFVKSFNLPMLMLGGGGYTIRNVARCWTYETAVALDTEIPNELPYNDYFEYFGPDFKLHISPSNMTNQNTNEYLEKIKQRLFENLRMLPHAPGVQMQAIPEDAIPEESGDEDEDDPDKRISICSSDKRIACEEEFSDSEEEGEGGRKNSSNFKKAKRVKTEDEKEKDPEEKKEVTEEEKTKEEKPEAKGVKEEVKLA
Summary of the method: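 Baculovirus-expressed full-length human HDAC1 with His and FLAG tags, 0.3 ng/ul, incubated 1 h at 30° C with compound and 50 μM RHKK(Ac)AMC in Tris pH 8.0 buffer with BSA and 1% DMSO. Developer then releases AMC from deacetylated substrate; fluorescence read at 360/460 nm.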

Human HDAC4 = target: T2, Human HDAC4 (Homo sapiens, UniProt P56524); assay: HDAC4 biochemical assay, class IIa-specific substrate; conditions: read-out: HDAC Isoform IC50 (nM) 4
T2 construct: amino acids 627-1085 with N-terminal GST tag; GST (N); host or cells: baculovirus expression system
T2 sequence (P56524 627-1084 limits assumed): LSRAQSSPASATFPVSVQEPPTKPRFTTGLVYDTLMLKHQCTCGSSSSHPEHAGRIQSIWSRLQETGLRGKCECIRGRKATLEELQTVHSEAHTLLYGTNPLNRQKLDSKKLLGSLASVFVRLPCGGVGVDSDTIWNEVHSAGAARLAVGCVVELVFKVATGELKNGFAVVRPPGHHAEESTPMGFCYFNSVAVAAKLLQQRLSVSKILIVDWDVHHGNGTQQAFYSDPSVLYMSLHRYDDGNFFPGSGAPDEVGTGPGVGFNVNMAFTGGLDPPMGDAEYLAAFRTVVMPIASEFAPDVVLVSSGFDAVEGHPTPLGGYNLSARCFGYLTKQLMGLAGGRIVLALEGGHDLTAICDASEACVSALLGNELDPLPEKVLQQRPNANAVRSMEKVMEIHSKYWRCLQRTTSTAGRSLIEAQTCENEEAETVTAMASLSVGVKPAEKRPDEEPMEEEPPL
Summary of the method: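 GST-tagged human HDAC4 (aa 627-1085, baculovirus) at 0.004 ng/ul was incubated 30 min at room temperature with 50 μM class IIa-specific substrate BOC-Lys(trifluoroacetyl)-AMC in Tris-HCl pH 8.0 buffer with BSA, 1% DMSO. Developer then released AMC, read at 360/460 nm.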

Human HDAC5 = target: T3, Human HDAC5 (Homo sapiens, UniProt Q9UQL6); assay: HDAC5 biochemical assay, class IIa-specific substrate; conditions: read-out: HDAC Isoform IC50 (nM) 5
T3 construct: full length with C-terminal His tag, MW=51.1 kDa; His (C); host or cells: baculovirus expression system
T3 sequence (Q9UQL6 656-1122 limits assumed): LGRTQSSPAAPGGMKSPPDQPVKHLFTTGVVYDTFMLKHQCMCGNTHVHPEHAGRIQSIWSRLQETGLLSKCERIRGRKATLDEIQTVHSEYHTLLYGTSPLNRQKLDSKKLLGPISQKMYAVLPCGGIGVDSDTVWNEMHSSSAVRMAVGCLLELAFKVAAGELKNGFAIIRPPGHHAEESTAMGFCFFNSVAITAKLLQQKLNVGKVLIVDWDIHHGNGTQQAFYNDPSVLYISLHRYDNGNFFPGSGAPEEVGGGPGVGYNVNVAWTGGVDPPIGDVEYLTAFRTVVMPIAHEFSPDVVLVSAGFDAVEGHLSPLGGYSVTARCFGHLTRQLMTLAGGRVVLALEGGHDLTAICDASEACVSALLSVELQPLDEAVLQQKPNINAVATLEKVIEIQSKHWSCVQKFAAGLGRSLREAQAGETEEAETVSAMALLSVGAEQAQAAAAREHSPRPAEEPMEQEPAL
Summary of the method: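 Full-length C-terminal His-tagged HDAC5 from baculovirus (0.05 ng/ul) incubated 30 min at room temperature with 50 μM Boc-Lys(trifluoroacetyl)-AMC and compound, Tris pH 8.0 buffer with BSA, 1% DMSO. Developer then releases AMC; fluorescence 360/460 nm.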

Recombinant human HDAC6 = target: T4, Recombinant human HDAC6 (Homo sapiens, UniProt Q9UBN7); assay: HDAC6 biochemical assay, AMC-labeled peptide substrate; conditions: HDAC6; read-out: HDAC Isoform IC50 (nM) 6
T4 construct: full length, MW=159 kDa; GST (N); host or cells: Sf9 insect cells (baculovirus)
T4 sequence (Q9UBN7 1-1215): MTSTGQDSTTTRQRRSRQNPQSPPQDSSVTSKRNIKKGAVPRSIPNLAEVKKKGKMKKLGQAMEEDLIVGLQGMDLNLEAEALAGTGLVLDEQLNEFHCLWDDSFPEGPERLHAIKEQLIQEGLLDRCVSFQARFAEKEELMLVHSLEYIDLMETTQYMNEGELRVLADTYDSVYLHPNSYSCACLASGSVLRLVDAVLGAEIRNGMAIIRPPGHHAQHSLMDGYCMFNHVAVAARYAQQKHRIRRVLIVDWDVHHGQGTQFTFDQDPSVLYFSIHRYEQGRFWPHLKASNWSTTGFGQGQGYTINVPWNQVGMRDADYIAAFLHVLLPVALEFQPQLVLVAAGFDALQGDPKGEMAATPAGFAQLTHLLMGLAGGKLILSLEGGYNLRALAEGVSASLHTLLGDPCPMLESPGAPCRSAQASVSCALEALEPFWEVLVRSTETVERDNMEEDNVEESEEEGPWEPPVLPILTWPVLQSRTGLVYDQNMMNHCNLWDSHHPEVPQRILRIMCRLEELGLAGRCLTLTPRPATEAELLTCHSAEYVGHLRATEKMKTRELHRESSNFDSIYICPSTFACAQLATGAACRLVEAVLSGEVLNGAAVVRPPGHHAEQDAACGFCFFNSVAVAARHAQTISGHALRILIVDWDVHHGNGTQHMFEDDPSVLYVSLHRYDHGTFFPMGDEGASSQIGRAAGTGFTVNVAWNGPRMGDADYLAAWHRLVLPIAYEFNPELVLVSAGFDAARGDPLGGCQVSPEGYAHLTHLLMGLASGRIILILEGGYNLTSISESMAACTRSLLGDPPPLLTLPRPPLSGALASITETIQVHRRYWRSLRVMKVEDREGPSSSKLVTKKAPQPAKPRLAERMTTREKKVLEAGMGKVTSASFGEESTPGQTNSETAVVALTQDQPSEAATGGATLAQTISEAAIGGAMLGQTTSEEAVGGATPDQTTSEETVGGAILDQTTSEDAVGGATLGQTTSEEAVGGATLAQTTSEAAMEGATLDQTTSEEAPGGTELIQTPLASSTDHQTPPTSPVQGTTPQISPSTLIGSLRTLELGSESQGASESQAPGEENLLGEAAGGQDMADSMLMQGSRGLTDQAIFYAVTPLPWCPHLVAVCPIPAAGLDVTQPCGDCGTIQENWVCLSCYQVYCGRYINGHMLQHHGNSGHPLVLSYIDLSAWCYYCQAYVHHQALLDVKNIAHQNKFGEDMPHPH
Summary of the method: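 Two-step fluorogenic read-out: enzyme deacetylates 50 μM RHKK(Ac)AMC for 1 h at 30° C in pH 8.0 Tris buffer with BSA and 1% DMSO, then developer cleavage gives signal at Ex 360/Em 460. Enzyme: 0.3 ng/ul recombinant full-length human HDAC6, GST-tagged, Sf9-expressed.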

Human HDAC7 = target: T5, Human HDAC7 (Homo sapiens, UniProt Q8WUI4); assay: HDAC7 biochemical assay, class IIa-specific substrate; conditions: read-out: HDAC Isoform IC50 (nM) 7
T5 construct: (a.a. 518-end) with N-terminal GST tag; GST (N); host or cells: baculovirus expression system
T5 sequence (Q8WUI4 518-952 limits assumed): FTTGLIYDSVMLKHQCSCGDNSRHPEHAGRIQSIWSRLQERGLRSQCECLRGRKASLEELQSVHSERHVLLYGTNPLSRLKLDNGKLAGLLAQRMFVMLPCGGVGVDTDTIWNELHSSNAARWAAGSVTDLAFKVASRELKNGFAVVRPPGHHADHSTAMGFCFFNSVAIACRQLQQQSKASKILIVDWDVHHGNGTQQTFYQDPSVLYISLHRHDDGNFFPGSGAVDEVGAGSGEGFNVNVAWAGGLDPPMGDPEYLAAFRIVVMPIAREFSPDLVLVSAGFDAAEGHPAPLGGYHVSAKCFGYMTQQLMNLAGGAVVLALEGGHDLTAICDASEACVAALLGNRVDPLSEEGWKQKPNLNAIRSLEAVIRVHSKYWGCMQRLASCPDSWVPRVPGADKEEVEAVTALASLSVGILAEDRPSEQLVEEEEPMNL
Summary of the method: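 GST-tagged HDAC7 (a.a. 518-end, baculovirus-expressed) at 0.001 ng/ul with 50 μM Boc-Lys(trifluoroacetyl)-AMC substrate, 30 min at room temperature in pH 8.0 Tris buffer with BSA, 1% DMSO final. Developer then releases AMC; fluorescence read at 360/460 nm.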

Human HDAC9 = target: T6, Human HDAC9 (Homo sapiens, UniProt Q9UKV0); assay: HDAC9 biochemical assay, class IIa-specific substrate; conditions: read-out: HDAC Isoform IC50 (nM) 9
T6 construct: amino acids 604-1066 with C-terminal His tag; His (C); host or cells: baculovirus expression system
T6 sequence (Q9UKV0 604-1066 isoform Q9UKV0-5): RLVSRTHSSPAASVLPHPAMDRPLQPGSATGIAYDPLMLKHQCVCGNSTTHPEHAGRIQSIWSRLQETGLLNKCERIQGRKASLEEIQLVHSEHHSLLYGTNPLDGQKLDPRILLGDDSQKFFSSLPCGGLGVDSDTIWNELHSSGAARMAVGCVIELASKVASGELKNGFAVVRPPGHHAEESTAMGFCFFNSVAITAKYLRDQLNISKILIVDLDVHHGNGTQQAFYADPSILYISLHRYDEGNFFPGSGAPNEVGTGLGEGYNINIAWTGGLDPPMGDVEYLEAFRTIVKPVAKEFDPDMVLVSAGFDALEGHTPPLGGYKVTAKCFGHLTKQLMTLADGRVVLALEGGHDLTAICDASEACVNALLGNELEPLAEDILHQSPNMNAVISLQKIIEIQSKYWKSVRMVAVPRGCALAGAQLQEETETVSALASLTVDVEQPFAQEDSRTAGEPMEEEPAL
Summary of the method: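 HDAC9 residues 604-1066 (C-terminal His tag, baculovirus-expressed) at 0.06 ng/ul with 50 μM class IIa substrate Boc-Lys(trifluoroacetyl)-AMC in Tris-HCl pH 8.0 buffer with BSA and 1% DMSO. 30 min at room temperature, then developer added; fluorescence read at 360/460 nm Ex/Em.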

Row | Structure (SMILES) | IC50 (Human HDAC1) [nM] | IC50 (Human HDAC4) [nM] | IC50 (Human HDAC5) [nM] | IC50 (Recombinant human HDAC6) [nM] | IC50 (Human HDAC7) [nM] | IC50 (Human HDAC9) [nM]
1 | Cc1ncc(N(Cc2ccc(-c3noc(C(F)(F)F)n3)s2)c2cnccn2)nc1C [Example BT, 5,6-Dimethyl-N-(pyrazin-2-yl)-N-({5-[5-(trifluoromethyl)-1,2,4-oxadiazol-3-yl]thiophen-2-yl}methyl)pyrazin-2-amine] | > 10000 | ≤ 10000 | ≤ 10000 | ≤ 10000 | ≤ 10000 | ≤ 10000
2 | COc1ncncc1N(Cc1ccc(-c2noc(C(F)(F)F)n2)s1)c1cnccn1 [Example CY, 4-Methoxy-N-(pyrazin-2-yl)-N-({5-[5-(trifluoromethyl)-1,2,4-oxadiazol-3-yl]thiophen-2-yl}methyl)pyrimidin-5-amine] | > 10000 | ≤ 1000 | ≤ 500 | ≤ 10000 | ≤ 10000 | ≤ 10000
3 | FC(F)(F)c1cc(N(Cc2ccc(-c3noc(C(F)(F)F)n3)s2)c2cnccn2)ncn1 [Example CJ, N-(Pyrazin-2-yl)-6-(trifluoromethyl)-N-({5-[5-(trifluoromethyl)-1,2,4-oxadiazol-3-yl]thiophen-2-yl}methyl)pyrimidin-4-amine] | > 10000 | ≤ 10000 | ≤ 10000 | ≤ 10000 | ≤ 10000 | ≤ 10000
4 | Cc1nccc(N(Cc2ccc(-c3noc(C(F)(F)F)n3)s2)c2cnccn2)n1 [Example CA, 2-Methyl-N-(pyrazin-2-yl)-N-({5-[5-(trifluoromethyl)-1,2,4-oxadiazol-3-yl]thiophen-2-yl}methyl)pyrimidin-4-amine] | > 10000 | ≤ 1000 | ≤ 1000 | ≤ 10000 | ≤ 1000 | ≤ 1000
5 | O=C(O)c1ccc(N(Cc2ccc(-c3noc(C(F)(F)F)n3)s2)c2cnccn2)nn1 [Example DP, 6-[(Pyrazin-2-yl)({5-[5-(trifluoromethyl)-1,2,4-oxadiazol-3-yl]thiophen-2-yl}methyl)amino]pyridazine-3-carboxylic acid] | > 10000 | ≤ 10000 | ≤ 10000 | ≤ 1000 | ≤ 10000 | ≤ 10000
6 | Cc1cc(C)nc(N(Cc2ccc(-c3noc(C(F)(F)F)n3)s2)c2cnccn2)n1 [Example AZ, 4,6-Dimethyl-N-(pyrazin-2-yl)-N-({5-[5-(trifluoromethyl)-1,2,4-oxadiazol-3-yl]thiophen-2-yl}methyl)pyrimidin-2-amine] | > 10000 | > 10000 | ≤ 10000 | ≤ 10000 | > 10000 | > 10000
7 | COc1cnc(N(Cc2ccc(-c3noc(C(F)(F)F)n3)s2)c2cnccn2)nc1 [Example AY, 5-Methoxy-N-(pyrazin-2-yl)-N-({5-[5-(trifluoromethyl)-1,2,4-oxadiazol-3-yl]thiophen-2-yl}methyl)pyrimidin-2-amine] | ≤ 10000 | ≤ 10000 | ≤ 10000 | ≤ 1000 | ≤ 10000 | ≤ 10000
8 | FC(F)(F)c1nc(-c2ccc(CN(c3cnccn3)c3nccc4cnccc34)s2)no1 [Example AK, N-(Pyrazin-2-yl)-N-({5-[5-(trifluoromethyl)-1,2,4-oxadiazol-3-yl]thiophen-2-yl}methyl)-2,6-naphthyridin-1-amine] | > 10000 | ≤ 500 | ≤ 500 | ≤ 1000 | ≤ 500 | ≤ 500
9 | FC(F)(F)c1nc(-c2ccc(CN(c3cnccn3)c3cc4nccnc4cn3)s2)no1 [Example AF, N-{Pyrido[3,4-b]pyrazin-7-yl}-N-({5-[5-(trifluoromethyl)-1,2,4-oxadiazol-3-yl]thiophen-2-yl}methyl)pyrazin-2-amine] | > 10000 | ≤ 10000 | ≤ 1000 | ≤ 1000 | ≤ 10000 | ≤ 10000
10 | FC(F)(F)c1nc(-c2ccc(CN(c3cnccn3)c3cnc(-c4ccco4)cn3)s2)no1 [Example BJ, 5-(Furan-2-yl)-N-(pyrazin-2-yl)-N-({5-[5-(trifluoromethyl)-1,2,4-oxadiazol-3-yl]thiophen-2-yl}methyl)pyrazin-2-amine] | ≤ 10000 | ≤ 1000 | ≤ 10000 | ≤ 10000 | ≤ 10000 | ≤ 10000
11 | CS(=O)(=O)c1cnc(N(Cc2ccc(-c3noc(C(F)(F)F)n3)s2)c2cnccn2)cn1 [Example BL, 5-Methanesulfonyl-N-(pyrazin-2-yl)-N-({5-[5-(trifluoromethyl)-1,2,4-oxadiazol-3-yl]thiophen-2-yl}methyl)pyrazin-2-amine] | > 10000 | ≤ 1000 | ≤ 1000 | ≤ 10000 | ≤ 1000 | ≤ 10000
12 | Cc1ncc(N(Cc2ccc(-c3noc(C(F)(F)F)n3)s2)c2cnccn2)c(C)n1 [Example DB, 2,4-Dimethyl-N-(pyrazin-2-yl)-N-({5-[5-(trifluoromethyl)-1,2,4-oxadiazol-3-yl]thiophen-2-yl}methyl)pyrimidin-5-amine] | > 10000 | ≤ 500 | ≤ 500 | ≤ 10000 | ≤ 1000 | ≤ 1000
